Test results published in US9085576B2 (AMGEN INC., priority 2013, dated 2015).

Legend:
Cathepsin D (Cat D) = Cathepsin D (Cat D) (Homo sapiens (Human), UniProt P07339); assay: In vitro enzymatic Cathepsin D (Cat D) FRET assay; assay type: biochemical; details: read-out: CatD IC50
[1] = biological target: Beta Secretase enzyme (BACE) (Homo sapiens (Human), UniProt P56817); assay: In vitro enzymatic BACE FRET assay; assay type: biochemical; details: read-out: BACE1 Enzyme assay IC50
BACE = BACE (Homo sapiens (Human), UniProt P56817); assay: In vitro BACE cell-based assay (Aβ40 in conditioned medium, sandwich ELISA)
Sequence of BACE (P56817 46-501, species assumed): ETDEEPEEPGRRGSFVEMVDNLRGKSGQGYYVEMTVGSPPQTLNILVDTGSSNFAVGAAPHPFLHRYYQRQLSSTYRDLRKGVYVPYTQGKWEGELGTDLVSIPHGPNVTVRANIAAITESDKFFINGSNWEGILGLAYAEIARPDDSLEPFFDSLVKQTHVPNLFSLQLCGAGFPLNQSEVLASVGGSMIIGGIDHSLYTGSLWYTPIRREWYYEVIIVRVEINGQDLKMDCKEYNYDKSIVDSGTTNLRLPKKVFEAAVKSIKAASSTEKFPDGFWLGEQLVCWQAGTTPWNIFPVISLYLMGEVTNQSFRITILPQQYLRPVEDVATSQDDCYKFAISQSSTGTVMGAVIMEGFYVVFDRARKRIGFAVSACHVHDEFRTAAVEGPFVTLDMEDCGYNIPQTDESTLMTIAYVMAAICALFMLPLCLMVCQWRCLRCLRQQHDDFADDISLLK

Sequence of Beta Secretase enzyme (BACE) (P56817 46-501): as the sequence (P56817 46-501, species assumed) above
Sequence of Cathepsin D (Cat D) (P07339 65-412, species assumed): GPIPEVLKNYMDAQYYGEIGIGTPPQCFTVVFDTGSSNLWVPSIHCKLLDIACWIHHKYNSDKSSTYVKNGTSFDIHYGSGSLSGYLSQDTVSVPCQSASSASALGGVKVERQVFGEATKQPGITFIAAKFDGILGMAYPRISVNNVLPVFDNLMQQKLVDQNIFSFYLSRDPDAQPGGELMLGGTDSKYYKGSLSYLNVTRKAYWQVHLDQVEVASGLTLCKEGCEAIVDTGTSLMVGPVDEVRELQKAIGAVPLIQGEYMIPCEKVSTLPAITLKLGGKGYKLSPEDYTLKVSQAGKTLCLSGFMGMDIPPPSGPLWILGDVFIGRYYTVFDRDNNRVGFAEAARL

SMILES	IC50 (Cathepsin D (Cat D)) [µM]	IC50 [1] [µM]	IC50 (BACE) [µM]
NC1=N[C@@](c2cc(NC(=O)c3nn(C(F)F)cc3Cl)cc(F)c2F)(C(F)F)[C@H]2C[C@H]2O1 (stereo in doubt) [Example 110, N-(3-((1R,5S,6R)-3-amino-5-(difluoromethyl)-2-oxa-4-azabicyclo[4.1.0]hept-3-en-5-yl)-4,5-difluorophenyl)-4-chloro-1-(difluoromethyl)-1H-pyrazole-3-carboxamide]	1480	26.2	> 17.4
NC1=NC(c2cc(NCc3nn(C(F)F)cc3Cl)ccc2F)(C(F)F)[C@H]2C[C@H]2O1 (stereo in doubt) [Example 374, (1R,5R,6R)-5-(5-(((4-chloro-1-(difluoromethyl)-1H-pyrazol-3-yl)methyl)amino)-2-fluorophenyl)-5-(difluoromethyl)-2-oxa-4-azabicyclo[4.1.0]hept-3-en-3-amine]	116	0.0954	0.0779
COc1cc(Cl)cnc1C(=O)Nc1ccc(F)c([C@@]2(C(F)F)N=C(N)O[C@@H]3C[C@@H]32)c1 [Example 28, N-(3-((1R,5S,6R)-3-amino-5-(difluoromethyl)-2-oxa-4-azabicyclo[4.1.0]hept-3-en-5-yl)-4-fluorophenyl)-5-chloro-3-methoxypicolinamide]	908	0.118	0.0765
NC1=N[C@@](CF)(c2cc(NC(=O)c3ccc(Cl)cn3)cc(F)c2F)[C@@H]2C[C@@H]2O1 [Example 32, N-(3-((1 S,5R,6S)-3-amino-5-(fluoromethyl)-2-oxa-4-azabicyclo[4.1.0]hept-3-en-5-yl)-4,5-difluorophenyl)-5-chloropicolinamide]	1020	1.22	0.232
C#CCOc1cnc(C(=O)Nc2cc(F)c(F)c([C@@]3(CF)N=C(N)O[C@@H]4C[C@@H]43)c2)cn1 [Example 33, N-(3-((1R,5S,6R)-3-amino-5-(fluoromethyl)-2-oxa-4-azabicyclo[4.1.0]hept-3-en-5-yl)-4,5-difluorophenyl)-5-(prop-2-yn-1-yloxy)pyrazine-2-carboxamide]	116	0.0054	0.0014
CC#CCOc1cnc(C(=O)Nc2cc(F)c(F)c([C@@]3(CF)N=C(N)O[C@@H]4C[C@@H]43)c2)cn1 [Example 35, N-(3-((1R,5S,6R)-3-amino-5-(fluoromethyl)-2-oxa-4-azabicyclo[4.1.0]hept-3-en-5-yl)-4,5-difluorophenyl)-5-(but-2-yn-1-yloxy)pyrazine-2-carboxamide]	256	0.0016	0.0006
NC1=N[C@](CF)(c2cc(NC(=O)c3ccc(Br)cn3)cc(F)c2F)[C@H]2C[C@H]2O1 [Example 39, N-(3-((1R,5S,6R)-3-amino-5-(fluoromethyl)-2-oxa-4-azabicyclo[4.1.0]hept-3-en-5-yl)-4,5-difluorophenyl)-5-bromopicolinamide]	109	0.0469	0.0179
NC1=N[C@](CF)(c2cc(NC(=O)c3nn(C(F)F)cc3Cl)cc(F)c2F)[C@H]2C[C@H]2O1 [Example 46, N-(3-((1R,5S,6R)-3-amino-5-(fluoromethyl)-2-oxa-4-azabicyclo[4.1.0]hept-3-en-5-yl)-4,5-difluorophenyl)-4-chloro-1-(difluoromethyl)-1H-pyrazole-3-carboxamide]	174	0.018	0.0046
Cc1cc(C#N)cnc1C(=O)Nc1cc(F)c(F)c([C@@]2(CF)N=C(N)O[C@@H]3C[C@@H]32)c1 [Example 49]	202	0.0308	0.0082
Cc1cc(C(F)(F)F)cnc1C(=O)Nc1cc(F)c(F)c([C@@]2(CF)N=C(N)O[C@@H]3C[C@@H]32)c1 [Example 51]	113	0.0627	0.0143
CC#CCOc1cnc(C(=O)Nc2ccc(F)c([C@@]3(C)N=C(N)O[C@@H]4C[C@@H]43)c2)c(C)c1 [Example 56, N-(3-((1R,5S,6R)-3-amino-5-methyl-2-oxa-4-azabicyclo[4.1.0]hept-3-en-5-yl)-4-fluorophenyl)-5-(but-2-yn-1-yloxy)-3-methylpicolinamide]	303	0.0129	0.003
CC#CCOc1cnc(C(=O)Nc2ccc(F)c([C@]3(C)N=C(N)O[C@H]4C[C@H]43)c2)c(C)c1 [Example 57, N-(3-((1S,5R,6S)-3-amino-5-methyl-2-oxa-4-azabicyclo[4.1.0]hept-3-en-5-yl)-4-fluorophenyl)-5-(but-2-yn-1-yloxy)-3-methylpicolinamide]	333	2.25	0.455
NC1=N[C@](c2cc(NC(=O)c3ccc(Cl)cn3)ccc2F)(C(F)F)[C@@H]2C[C@@H]2O1 [Example 60, N-(3-((1S,5R,6S)-3-amino-5-(difluoromethyl)-2-oxa-4-azabicyclo[4.1.0]hept-3-en-5-yl)-4-fluorophenyl)-5-chloropicolinamide]	> 400	> 40	> 15.6
COc1cnc(C(=O)Nc2ccc(F)c([C@@]3(C(F)F)N=C(N)O[C@@H]4C[C@@H]43)c2)c(C)n1 [Example 63, N-(3((1R,5S,6R)-3-amino-5-(difluoromethyl)-2-oxa-4-azabicyclo[4.1.0]hept-3-en-5-yl)-4-fluorophenyl)-5-methoxy-3-methylpyrazine-2-carboxamide]	99.8	0.0637	0.0584
COc1cnc(C(=O)Nc2ccc(F)c([C@]3(C(F)F)N=C(N)O[C@H]4C[C@H]43)c2)c(C)n1 [Example 64, N-(3-((1S,5R,6S)-3-amino-5-(difluoromethyl)-2-oxa-4-azabicyclo[4.1.0]hept-3-en-5-yl)-4-fluorophenyl)-5-methoxy-3-methylpyrazine-2-carboxamide]	191	6.19	> 15.6
C[C@]1(c2cc(NC(=O)c3ccc(Cl)cn3)ccc2F)N=C(N)O[C@@H]2C[C@@H]21 [Example 68]	476	0.065	0.0063
Cc1c(C(=O)Nc2ccc(F)c([C@@]3(C(F)F)N=C(N)O[C@@H]4C[C@@H]43)c2)nc2ccc(Cl)cn12 [Example 69]	440	0.126	0.0372
COc1cnc(C(=O)Nc2ccc(F)c([C@@]3(C(F)F)N=C(N)O[C@@H]4C[C@@H]43)c2)cn1 [Example 72, N-(3-((1R,5S,6R)-3-amino-5-(difluoromethyl)-2-oxa-4-azabicyclo[4.1.0]hept-3-en-5-yl)-4-fluorophenyl)-5-methoxypyrazine-2-carboxamide]	1110	0.0763	0.0604
COc1ccc(C(=O)Nc2ccc(F)c([C@]3(CF)N=C(N)O[C@H]4C[C@H]43)c2F)nc1 [Example 78, N-(3-((1S,5R,6S)-3-amino-5-(fluoromethyl)-2-oxa-4-azabicyclo[4.1.0]hept-3-en-5-yl)-2,4-difluorophenyl)-5-methoxypicolinamide]	> 400	> 40	> 15.6
COc1ccc(C(=O)Nc2ccc(F)c([C@@]3(CF)N=C(N)O[C@@H]4C[C@@H]43)c2F)nc1 [Example 79, N-(3-((1R,5S,6R)-3-amino-5-(fluoromethyl)-2-oxa-4-azabicyclo[4.1.0]hept-3-en-5-yl)-2,4-difluorophenyl)-5-methoxypicolinamide]	942	3.04	0.12
COC[C@]1(c2cc(NC(=O)c3cnc(OC)cn3)ccc2F)N=C(N)O[C@@H]2C[C@@H]21 [Example 80, N-(3-((1R,5S,6R)-3-amino-5-(methoxymethyl)-2-oxa-4-azabicyclo[4.1.0]hept-3-en-5-yl)-4-fluorophenyl)-5-methoxypyrazine-2-carboxamide]	> 400	7.95	0.183
COC[C@@]1(c2cc(NC(=O)c3cnc(OC)cn3)ccc2F)N=C(N)O[C@H]2C[C@H]21 [Example 81, N-(3-((1S,5R,6S)-3-amino-5-(methoxymethyl)-2-oxa-4-azabicyclo[4.1.0]hept-3-en-5-yl)-4-fluorophenyl)-5-methoxypyrazine-2-carboxamide]	> 400	> 40	> 15.6
COC[C@]1(c2cc(NC(=O)c3ccc(Cl)cn3)ccc2F)N=C(N)O[C@@H]2C[C@@H]21 [Example 82, N-(3-((1R,5S,6R)-3-amino-5-(methoxymethyl)-2-oxa-4-azabicyclo[4.1.0]hept-3-en-5-yl)-4-fluorophenyl)-5-chloropicolinamide]	> 400	2.74	0.157
COC[C@@]1(c2cc(NC(=O)c3ccc(Cl)cn3)ccc2F)N=C(N)O[C@H]2C[C@H]21 [Example 83, N-(3-((1 S,5R,6S)-3-amino-5-(methoxymethyl)-2-oxa-4-azabicyclo[4.1.0]hept-3-en-5-yl)-4-fluorophenyl)-5-chloropicolinamide]	> 400	> 40	> 15.6
COc1cnc(C(=O)Nc2ccc(F)c([C@@]3(C(F)F)N=C(N)O[C@@H]4C[C@@H]43)c2)c(OC)n1 [Example 84, N-(3-((1R,5S,6R)-3-amino-5-(difluoromethyl)-2-oxa-4-azabicyclo[4.1.0]hept-3-en-5-yl)-4-fluorophenyl)-3,5-dimethoxypyrazine-2-carboxamide]	> 400	0.494	0.361
COc1cnc(C(=O)Nc2cc(Cl)c(F)c([C@@]3(CF)N=C(N)O[C@@H]4C[C@@H]43)c2)cn1 [Example 85, N-(3-((1R,5S,6R)-3-amino-5-(fluoromethyl)-2-oxa-4-azabicyclo[4.1.0]hept-3-en-5-yl)-5-chloro-4-fluorophenyl)-5-methoxypyrazine-2-carboxamide]	373	0.034	0.0067
